Experiment [1] deals with FATZO mice. The settings on record: for serum glucose concentrations in the fed state: after 8 weeks, vehicle 315.6±35.4; for serum glucose concentrations in the fed state / body weight change over the 8-week observation period: rosiglitazone 10 mg/kg/day, metformin 150 mg/kg/day; for body weight change over the 8-week observation period: oral once daily 8 weeks, vehicle 1.8±0.2. As to the method: Male FATZO mice (9 weeks of age, n=40) were maintained on Purina 5008 regular rodent chow and reverse osmosis water ad libitum. Mice were housed 3 per cage and acclimated to study environment for 7 days prior to study. At 10 weeks of age, mice were fasted for 6 hours, body weight was recorded and an OGTT performed. Glucose and insulin were assayed at 0, 30, 60, 90, 120 and 180 minutes following a 2 g/kg glucose load. Glucose concentrations were obtained from StatStrip glucometer and insulin was assayed at each time-point using the insulin kit mentioned above. Insulin sensitivity index (ISI) was calculated using a formula modified from Matsuda and DeFronzo [39] by changing the numerator to 10,000 and using glucose and insulin AUCs instead of average glucose and insulin levels ([…]/square root of [fasting glucose x fasting insulin]×[glucose AUC×insulin AUC during OGTT]).
Animals were randomized into 3 groups of 10 based on baseline ISI and body weight. […] Compounds were administered orally once daily by gavage for 8 weeks. Body weight was recorded weekly.
Following 8 weeks of treatment, OGTT was repeated one hour after compound administration. Whole blood was taken from tail clip and processed to serum. Treatment effects on glucose disposal, fed serum glucose, HbAlc, and ISI were compared to vehicle.

Experiment [2] has as its system FATZO mice. Kind of experiment: Effect of leptin on food intake in FATZO mice. The format is in vivo, mouse. The settings on record: leptin 10 mg/kg, first 4 hours of darkness. As to the method: Two age groups of male FATZO mice were selected for leptin levels and the effect of leptin on food intake. Additional age matched groups of C57BL/6 were bled for leptin levels. Animals were acclimated to reverse light cycle for 7 days before being put on protocol. […] Serum was prepared from tail blood and leptin levels were analyzed (Meso Scale Discovery, K152BYC, Rockville, Md., USA). After blood collection, animals were given saline or leptin injections (10 mg/kg) and food intake data was recorded for the first 4 hours of darkness.

Setting [3] is: after 8 weeks of administration, compared to vehicle.

Consider three compounds from patent US11020494B2, “Animal models for nonalcoholic fatty liver disease” (CROWN BIOSCIENCE INC. (TAICANG), priority 2017, dated 2021).

On to `CN(C)C(=N)N=C(N)N` [metformin], for which, in the experiment on FATZO mice [1] (setting [3]), the “AUC for glucose during OGTT” value is recorded as “significant reductions”, the “calculated insulin sensitivity index (ISI)” value was “significant improvements” and the “insulin AUC during OGTT” value is “significant improvements”. For the same compound, in the experiment on FATZO mice [1], the “serum glucose concentrations in the fed state” value worked out at 250.0 ± 12.8 mg/dL and the “body weight change over the 8-week observation period” value is -0.2 ± 0.6 g.

Turning to `CN(CCOc1ccc(CC2SC(=O)NC2=O)cc1)c1ccccn1` (stereo not drawn) [rosiglitazone], in the experiment on FATZO mice [1], the “serum glucose concentrations in the fed state” value is 233.3 ± 7.7 mg/dL and the “body weight change over the 8-week observation period” value came out at 5.3 ± 0.7 g.

Take leptin: the “food intake after leptin injection” value in the experiment on FATZO mice [2] (FATZO at 10 weeks of age) is “no significant reduction”. Moreover, the “food consumption after leptin injection” value in the experiment on FATZO mice [2] (young FATZO animals (5 weeks)) is “significantly reduced”.
